# Earlier results, collected in publication PMC3172902 (British Journal of Cancer, 2011).
# Target: CDK2 (Homo sapiens, UniProt P24941)
# Assay: cell-free CDK2 inhibition (value printed without citation; method not described)
# Assay type: biochemical
substance,measurement,value
NU6252,IC50,19 nM
